Consider 4 compounds from article PMC4010493, “Molecular Characterization and Expression Analysis of ATP-Gated P2X7 Receptor Involved in Japanese Flounder (Paralichthys olivaceus) Innate Immune Response” (PLoS ONE, 2014).

What all share (format): cell-based
The target in assay [1] is T1, poP2RX7 (Paralichthys olivaceus, UniProt A0A059T2C6).
T1 construct: Xenopus laevis oocytes; homotrimer
In words: two-electrode voltage clamp, Xenopus oocytes. (Two-electrode voltage clamp holds a large cell at a set potential and records current.)

Assay [2] has as its target T2, rP2RX7 (Rattus norvegicus, UniProt Q64663).
T2 construct: gene P2rx7; rat P2RX7 cDNA in Xenopus laevis oocytes; homotrimer
T2 sequence (Q64663 1-595): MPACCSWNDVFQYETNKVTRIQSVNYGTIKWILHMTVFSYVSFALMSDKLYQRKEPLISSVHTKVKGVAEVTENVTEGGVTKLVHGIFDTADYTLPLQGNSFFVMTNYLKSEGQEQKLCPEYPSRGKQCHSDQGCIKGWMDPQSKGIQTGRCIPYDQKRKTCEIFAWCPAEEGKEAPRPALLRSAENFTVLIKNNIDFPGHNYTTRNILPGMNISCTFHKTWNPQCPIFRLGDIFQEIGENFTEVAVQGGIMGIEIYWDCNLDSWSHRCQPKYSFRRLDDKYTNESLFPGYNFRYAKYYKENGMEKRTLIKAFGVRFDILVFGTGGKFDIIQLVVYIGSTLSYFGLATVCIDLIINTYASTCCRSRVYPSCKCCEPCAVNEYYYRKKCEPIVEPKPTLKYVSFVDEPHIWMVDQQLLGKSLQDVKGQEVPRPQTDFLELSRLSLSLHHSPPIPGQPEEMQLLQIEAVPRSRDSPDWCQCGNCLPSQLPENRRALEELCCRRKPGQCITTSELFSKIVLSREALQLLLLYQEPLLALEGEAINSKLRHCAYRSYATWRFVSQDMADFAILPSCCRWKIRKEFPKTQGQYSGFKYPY
Nature of the assay: two-electrode voltage clamp, Xenopus oocytes.

For assay [3], the target named is T1, poP2RX7. In words: two-electrode voltage clamp, inhibition of ATP-evoked current. Conditions: antagonist; 2 min pre-application, then co-applied with ATP; -70 mV, pH 7.5.
The target of assay [4] is T2, rP2RX7. The assay is described as above. Conditions: antagonist; 2 min pre-application, then co-applied with ATP; -70 mV, pH 7.5.
Assay [5] has as its target T1, poP2RX7. Described as above. The conditions noted are these: antagonist; 2 min pre-application, then co-applied with ATP; -70 mV, pH 7.5. This is another data set of the same source.

T1 sequence (A0A059T2C6 entry or part of it): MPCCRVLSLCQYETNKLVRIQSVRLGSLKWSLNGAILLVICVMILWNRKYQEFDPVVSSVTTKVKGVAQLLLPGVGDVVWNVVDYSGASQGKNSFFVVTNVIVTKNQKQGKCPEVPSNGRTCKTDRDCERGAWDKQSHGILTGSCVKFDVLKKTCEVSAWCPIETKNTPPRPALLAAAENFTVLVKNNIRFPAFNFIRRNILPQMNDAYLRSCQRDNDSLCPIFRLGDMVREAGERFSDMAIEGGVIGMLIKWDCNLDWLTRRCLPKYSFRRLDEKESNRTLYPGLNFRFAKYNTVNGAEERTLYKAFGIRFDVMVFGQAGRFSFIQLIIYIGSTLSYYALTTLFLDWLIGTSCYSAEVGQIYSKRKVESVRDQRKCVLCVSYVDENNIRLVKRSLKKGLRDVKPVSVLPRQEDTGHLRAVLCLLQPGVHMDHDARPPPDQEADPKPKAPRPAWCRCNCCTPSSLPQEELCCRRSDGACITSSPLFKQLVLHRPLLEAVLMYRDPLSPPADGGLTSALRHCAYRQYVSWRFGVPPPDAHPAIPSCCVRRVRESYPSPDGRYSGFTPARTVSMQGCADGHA

Usually EC50 stands for the concentration at which the effect is half-maximal. A high value points to lower potency in that assay. As to `Nc1ncnc2c1ncn2[C@@H]1O[C@H](COP(=O)(O)OP(=O)(O)OP(=O)(O)O)[C@@H](OC(=O)c2ccc(C(=O)c3ccccc3)cc2)[C@H]1O` [BzATP], the 50% effective concentration (EC50) in assay [1] worked out at 743 ± 299 µM; in assay [2] it was 13.3 ± 1.6 µM.

Consider `O=C(CC12CC3CC(CC(C3)C1)C2)Nc1cccc2nc(NCCNCCO)ccc12` [AZ10606120], for which the “inhibition at 20 μM” value in assay [3] is on record as “AZ10606120 was less potent in poP2RX7 than in rP2RX7”. In addition, in assay [4], the inhibition result is on record as “AZ10606120 was less potent in poP2RX7 than in rP2RX7”.

As to `CCOc1ccc(Nc2ccc(C(=C3C=CC(=[N+](CC)Cc4cccc(S(=O)(=O)[O-])c4)C=C3C)c3ccc(N(CC)Cc4cccc(S(=O)(=O)O)c4)cc3C)cc2)cc1` [BBG], the inhibition entry in assay [4] is “inhibition induced by BBG or AZ10606120 (AZ) at poP2RX7 (open bars) and rP2RX7”. Moreover, the “inhibition at 1 μM” value in assay [5] is given as “ATP-evoked currents at poP2RX7 could be inhibited by both of the antagonists”.

For the compound `Nc1ncnc2c1ncn2[C@@H]1O[C@H](COP(=O)(O)OP(=O)(O)OP(=O)(O)O)[C@@H](O)[C@H]1O` [ATP], the EC50 stood at 790 ± 81 µM in assay [1] and 376 ± 120 µM in assay [2].
